Like-named read-outs stand apart in the source and are kept apart here.
Columns and labels:
[1] = tested on: P-gp-expressing Cell Lines; test: Modulation of P-gp-mediated drug resistance in vitro (panel statements); assay type: cell-based, human
Description: (§1) The compound of Formula 2 was able to reverse resistance to all classes of P-gp substrates in a wide variety of tumor cell types with EC50s in the low nM range (Table 2). Similar results were obtained with etoposide in several models. Complete reversal of MDR was typically seen with Formula 2 doses between 0.25 and 1.0 μM. Examples with cells expressing extremely high levels of P-gp as a result of drug selection (CEM/VLB1000), moderate levels of P-gp from gene transduction (MDA/LCC6 ^MDR1), and low (intrinsic) levels of P-gp (HCT-15) are illustrated in Table 2. The compound of Formula 2 had no effect on doxorubicin or paclitaxel IC50s in non-P-gp-expressing CCRF-CEM and MDA/LCC6 cells, respectively (FIG. 1, for MDA/LCC6 cells).
(§2) Cell proliferation IC50s and MDR reversal EC50s were determined from 3-day dose-response curves carried out in triplicate in 96-well plates essentially as described by Monks et al. (J. Natl. Cancer Inst., 83:757-66, 1991). Cells were plated in standard growth medium at 2.5 or 5.0×10^4 per well (CCRF-CEM and CEM/VLB1000 respectively) or 5×10^3 per well (all other cell lines) in a final volume of 100 μl. After a 2 h incubation for non-adherent cells and overnight incubation for adherent cells, the initial cell density was determined by fluorescence readout of Alamar Blue metabolism. […] Final cell density was determined with Alamar Blue. […]

[2] = tested on: 15 non-transformed and transformed cell lines; test: Proliferation assays, 15 non-transformed and transformed cell lines (panel statements); assay type: cell-based, human; settings: for IC50: Homo sapiens, 15 cell lines
Description: (§3) Cell proliferation IC50s and MDR reversal EC50s were determined from 3-day dose-response curves carried out in triplicate in 96-well plates essentially as described by Monks et al. (J. Natl. Cancer Inst., 83:757-66, 1991). Cells were plated in standard growth medium at 2.5 or 5.0×10^4 per well (CCRF-CEM and CEM/VLB1000 respectively) or 5×10^3 per well (all other cell lines) in a final volume of 100 μl. After a 2 h incubation for non-adherent cells and overnight incubation for adherent cells, the initial cell density was determined by fluorescence readout of Alamar Blue metabolism. The compound of Formula 2, cytotoxic agents, or compound vehicles were added to duplicate plates and the incubation was continued for an additional 72 h. Final cell density was determined with Alamar Blue. In some experiments, a standard endpoint assay was used without analysis of initial cell density with Alamar Blue. Similar results were obtained with the two assays. EC50s were derived by nonlinear regression analysis assuming a sigmoidal dose-response using GraphPad Prism Software (San Diego, Calif.). Proliferation assays capable of measuring both cytostatic and cytotoxic responses were carried out as described herein with 15 non-transformed and transformed cell lines, including primary fibroblasts, non-transformed smooth muscle, leukemia, breast, colon, ovarian and uterine carcinoma cells (±P-gp expression). Although the compound of Formula 2 reversed P-gp-mediated MDR in the low nanomolar concentration range, the compound was non-cytotoxic by itself at doses up to 100 μM in all cell lines. […] IC50s for non-specific cytotoxicity were similar in matched cell lines plus and minus P-gp expression. […] If it were, some consistent degree of resistance would be expected in P-gp expressing cells.

[3] = mouse, in vivo
Description: Non-tumor bearing athymic mice were treated with the compound of Formula 2 and (or) paclitaxel as described.

CCD-986SK = test: Cell proliferation assay; assay type: cell-based; settings: Homo sapiens; Primary fibroblast CCD-986SK; read-out: Formula 2 compound IC50 (inhibition of growth)
Description: as §3

SW620 = test: Cell proliferation assay; assay type: cell-based; settings: Homo sapiens, SW-620; Colorectal carcinoma SW620, P-gp Neg; read-out: Formula 2 compound IC50 (inhibition of growth)
Description: as §3

CEM/VLB1000 = test: Cell proliferation assay; assay type: cell-based; settings: Homo sapiens; Lymphoma CEM/VLB1000, P-gp Pos; read-out: Formula 2 compound IC50 (inhibition of growth)
Description: as §3

HISM = test: Cell proliferation assay; assay type: cell-based; settings: Homo sapiens; Smooth muscle HISM; read-out: Formula 2 compound IC50 (inhibition of growth)
Description: as §3

MDA/LCC6 = test: Cell proliferation assay; assay type: cell-based; settings: Homo sapiens, LCC-6; Breast carcinoma MDA/LCC6, P-gp Neg; read-out: Formula 2 compound IC50 (inhibition of growth)
Description: as §3

SW480 = test: Cell proliferation assay; assay type: cell-based; settings: Homo sapiens; Colorectal carcinoma SW480, P-gp Pos; read-out: Formula 2 compound IC50 (inhibition of growth)
Description: as §3

MES-SA = test: Cell proliferation assay; assay type: cell-based; settings: Homo sapiens; Uterine carcinoma MES-SA, P-gp Neg; read-out: Formula 2 compound IC50 (inhibition of growth)
Description: as §3

Cell proliferation assay = assay type: cell-based; settings: human, MDA/LCC6^MDR1 breast carcinoma cells (P-gp positive); Breast carcinoma MDA/LCC6^MDR1, P-gp Pos; read-out: Formula 2 compound IC50 (inhibition of growth)
Description: as §3

HCT-15 = test: Cell proliferation assay; assay type: cell-based; settings: Homo sapiens; Colorectal carcinoma HCT-15, P-gp Pos; read-out: Formula 2 compound IC50 (inhibition of growth)
Description: as §3

MCF-7/ADR = test: Cell proliferation assay; assay type: cell-based; settings: Homo sapiens, NCI/ADR-RES; Breast carcinoma MCF-7/ADR, P-gp Pos; read-out: Formula 2 compound IC50 (inhibition of growth)
Description: as §3

HT-29 = test: Cell proliferation assay; assay type: cell-based; settings: Homo sapiens; Colorectal carcinoma HT-29, P-gp Neg; read-out: Formula 2 compound IC50 (inhibition of growth)
Description: as §3

SKOV3 = test: Cell proliferation assay; assay type: cell-based; settings: Homo sapiens, SK-OV-3; Ovarian carcinoma SKOV3, P-gp Neg; read-out: Formula 2 compound IC50 (inhibition of growth)
Description: as §3

SK/VLB1000 = test: Cell proliferation assay; assay type: cell-based; settings: Homo sapiens; Ovarian carcinoma SK/VLB1000, P-gp Pos; read-out: Formula 2 compound IC50 (inhibition of growth)
Description: as §3

MCF-7 = test: Cell proliferation assay; assay type: cell-based; settings: Homo sapiens, MCF7; Breast carcinoma MCF-7, P-gp Neg; read-out: Formula 2 compound IC50 (inhibition of growth)
Description: as §3

CEM = test: Cell proliferation assay; assay type: cell-based; settings: Homo sapiens, CCRF-CEM; Lymphoma CEM, P-gp Neg; read-out: Formula 2 compound IC50 (inhibition of growth)
Description: as §3

MDA/LCC6 cells = test: Effect on paclitaxel IC50 in non-P-gp-expressing cells; assay type: cell-based, human; settings: breast carcinoma cells that do not express P-gp, FIG. 1
Description: as §1, §2

For `CCOC/C=C/c1ccc(-c2nc(-c3ccc(NC(C)C)cc3)c(-c3ccc(NC(C)C)cc3)[nH]2)cc1` [Formula 2 compound], the “MDR reversal potency after incubation in human plasma” value ([1]; human plasma) was “retained full MDR reversal potency”, the “EC50s for reversal of resistance to all classes of P-gp substrates” value ([1]; wide variety of tumor cell types) was “low nM range” and the IC50 ([2]; read-out: Cytostatic IC50, average value) was 60 µM. The IC50 ([2]; read-out: Cytostatic IC50s, range over cell lines) was 6 to 170 µM, the Cytotoxicity by itself ([2]; at doses up to 100 μM, all cell lines) was “non-cytotoxic” and the “Effect on paclitaxel toxicity” value [3] was “decreased paclitaxel toxicity”. It also gave an IC50 (CCD-986SK) greater than 100 µM, an IC50 (SW620) greater than 100 µM and an IC50 (CEM/VLB1000) of 32 µM. For the same molecule, the IC50 (HISM) was greater than 100 µM, the IC50 (MDA/LCC6) was greater than 100 µM and the IC50 (SW480) was greater than 100 µM. For the same molecule, the IC50 (MES-SA) was 51 µM, the IC50 at 72 h (Cell proliferation assay) was greater than 100 µM and the IC50 (HCT-15) was 6 µM. For the same molecule, the IC50 (MCF-7/ADR) was 68 µM, the IC50 (HT-29) was 12 µM and the IC50 (SKOV3) was 48 µM. The IC50 (SK/VLB1000) was 15 µM, the IC50 (MCF-7) was 30 µM and the IC50 (CEM) was 38 µM. The “In vitro anti-tumor activity of paclitaxel” value (MDA/LCC6 cells) was “did not enhance”.
